Numbered stars: 1 amine (or outer) side, 2 acyl side, 3 side chain; on linkers, the order of the positions; unused ones are H or OH. Bridge positions count the residues as written; N and C are the ends. Square brackets hold non-standard residues; d marks the D form. Peptide text beside a SMILES is read from it. * marks the point of attachment. hPhe(3-Cl-4-CF3) = N[C@@H](CCc1ccc(C(F)(F)F)c(Cl)c1)C(=O)O; hPhe(3-F,4-CF3) = N[C@@H](CCc1ccc(C(F)(F)F)c(F)c1)C(=O)O; hPhe(4-CF3) = N[C@@H](CCc1ccc(C(F)(F)F)cc1)C(=O)O; NEtPhe(4-Me) = CCN[C@@H](Cc1ccc(C)cc1)C(=O)O; NMePhe(4-Cl) = CN[C@@H](Cc1ccc(Cl)cc1)C(=O)O; NMePhe(4-Me) = CN[C@@H](Cc1ccc(C)cc1)C(=O)O; NMeNle(6-CHF2) = CN[C@@H](CCCCC(F)F)C(=O)O; NMedβ3hAla = C[C@H](CC(=O)[*:2])N(C)[*:1]; NMeGly(cPent) = CN[C@H](C(=O)O)C1CCCC1; NMeCha = CN[C@@H](CC1CCCCC1)C(=O)O; Hyp = O=C(O)[C@@H]1C[C@@H](O)CN1; NMeChg = CN[C@H](C(=O)O)C1CCCCC1; NMeI = CC[C@H](C)[C@H](NC)C(=O)O; NMeD = CN[C@@H](CC(=O)O)C(=O)O; NMeL = CN[C@@H](CC(C)C)C(=O)O; NMeV = CN[C@H](C(=O)O)C(C)C; d(β3hA) = C[C@@H](N)CC(=O)O; NMeA = CN[C@@H](C)C(=O)O; NMeAib = CNC(C)(C)C(=O)O; Piperidide = C1CCN(*)CC1; Pyrrolidide = C1CCN(*)C1; Ac5c = NC1(C(=O)O)CCCC1; Aze = O=C(O)[C@@H]1CCN1; Aib = CC(C)(N)C(=O)O; Sar = CNCC(=O)O; OAll = C=CCO*
Assays:
[1] = molecular target: protein-protein interaction between Kras and SOS1 (biotin-tagged human Kras loaded with GDP, His-tagged human SOS1) (Homo sapiens (Human), UniProt P01116, G12D); assay: Protein-protein interaction inhibition between Kras and SOS1 (KrasG12D-SOS PPI) using AlphaScreen; format: biochemical; details: AlphaScreen; biotin-tagged human Kras loaded with GDP, His-tagged human SOS1; read-out: KRAS G12D-SOS PPI IC50;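 further: kras produced in E. coli, Ni-coupled donor beads and streptavidin acceptor beads, excitation 680 nm with emission detected at 520–620 nm via singlet oxygen transfer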
[2] = system: Human pancreatic cancer cell line AsPC-1 (G12D mutation Kras); assay: AsPC-1 cell growth inhibition (AsPC-1 CGI); format: cell-based; details: read-out: AsPC-1 cell growth inhibition, 50% growth inhibitory concentration (IC50 value); 96 hours, CellTiter-Glo, values classified in ranges
Procedure: Test compounds were serially dilated with dimethyl sulfoxide, and 200 nL was then dispensed to a U-bottom 96-well plate using Labcyte Echo. […] The cell suspension was dispensed to a. plate containing a test compound at 100 μL per well and incubated at 37° C. in a 5% carbon dioxide gas incubator. 96 hours later, 80 μL of CellTiter-Glo (Promega) was added to each well and fluorescence was measured.

Structure (SMILES)	IC50 [1] [nM]	IC50 [2] [nM]
CC[C@H](C)[C@@H]1NC(=O)[C@H](C(C)C)N(C)C(=O)C[C@@H](C(=O)N2CCCC2)NC(=O)[C@H](CC(C)C)N(C)C(=O)C2(CCCC2)NC(=O)[C@H](CC(C)C)N(C)C(=O)[C@H](CCc2ccc(C(F)(F)F)cc2)NC(=O)CN(C)C(=O)[C@H](Cc2ccc(Cl)cc2)N(C)C(=O)CN(C)C(=O)CN(C)C1=O [Compound 769] ([NMeV]I[Sar][Sar][NMePhe(4-Cl)][Sar][hPhe(4-CF3)][NMeL][Ac5c][NMeL]D-Pyrrolidide; lactam N-11)	52	> 500
CCO[C@@H]1C[C@H]2C(=O)NC3(CCCC3)C(=O)N(C)[C@@H](C3CCCC3)C(=O)N(C)[C@H](C)CC(=O)N(C)[C@@H](CC(C)C)C(=O)N[C@@H]([C@@H](C)CC)C(=O)N(C)[C@@H](C)C(=O)N3CC[C@H]3C(=O)N(CC)[C@@H](Cc3ccc(C)cc3)C(=O)N(C)CC(=O)N[C@@H](CCc3ccc(C(F)(F)F)c(Cl)c3)C(=O)N2C1 [Compound 775] (cyclo([Ac5c][NMeGly(cPent)][NMedβ3hAla][NMeL]I[NMeA][Aze][NEtPhe(4-Me)][Sar][hPhe(3-Cl-4-CF3)][Hyp](Et)))	4.6	≤ 20
CC[C@H](C)[C@@H]1NC(=O)[C@H](CC(C)C)N(C)C(=O)C[C@@H](C(=O)N(C)C)N(C)C(=O)[C@H]([C@@H](C)CC)N(C)C(=O)[C@H](C(C)C)NC(=O)[C@@H]2CCCN2C(=O)[C@H](CCc2ccc(C(F)(F)F)c(Cl)c2)NC(=O)CN(C)C(=O)[C@H](Cc2ccc(C)cc2)N(C)C(=O)[C@@H]2CCN2C(=O)[C@H](C)N(C)C1=O [Compound 784] ([NMeL]I[NMeA][Aze][NMePhe(4-Me)][Sar][hPhe(3-Cl-4-CF3)]PV[NMeI][NMeD]-NMe2; lactam N-11)	4	> 500
CC[C@H](C)[C@@H]1NC(=O)[C@H](C)N(C)C(=O)C[C@@H](C)NC(=O)[C@H](CC(C)C)N(C)C(=O)C(C)(C)NC(=O)[C@H](CC(C)C)N(C)C(=O)[C@H](CCc2ccc(C(F)(F)F)cc2)NC(=O)CN(C)C(=O)[C@H](Cc2ccc(Cl)cc2)N(C)C(=O)CN(C)C(=O)CN(C)C1=O [Compound 788] (cyclo([Aib][NMeL][d(β3hA)][NMeA]I[Sar][Sar][NMePhe(4-Cl)][Sar][hPhe(4-CF3)][NMeL]))	13	> 500
C=CCOC(=O)C[C@H]1C(=O)NC2(CCCC2)C(=O)N(C)[C@@H](C(C)C)C(=O)N(C)[C@H](C(=O)N2CCCCC2)CC(=O)N(C)[C@@H](C)C(=O)N[C@@H]([C@@H](C)CC)C(=O)N(C)CC(=O)N(C)CC(=O)N(C)[C@@H](CC2CCCCC2)C(=O)N(C)CC(=O)N[C@@H](CCc2ccc(C(F)(F)F)c(Cl)c2)C(=O)N1C [Compound 792] ([NMeA]I[Sar][Sar][NMeCha][Sar][hPhe(3-Cl-4-CF3)][NMeD](OAll)[Ac5c][NMeV][NMeD]-Piperidide; lactam N-11)	3.5	> 500
CC[C@H](C)[C@@H]1NC(=O)[C@H](CC(C)C)N(C)C(=O)C[C@@H](C(=O)N2CCCCC2)N(C)C(=O)[C@H](C2CCCCC2)N(C)C(=O)C2(CCCC2)NC(=O)[C@H](CCCCC(F)F)N(C)C(=O)[C@H](CCc2ccc(C(F)(F)F)c(Cl)c2)NC(=O)CN(C)C(=O)[C@H](CC2CCCCC2)N(C)C(=O)CN(C)C(=O)CN(C)C1=O [Compound 796] ([NMeL]I[Sar][Sar][NMeCha][Sar][hPhe(3-Cl-4-CF3)][NMeNle(6-CHF2)][Ac5c][NMeChg][NMeD]-Piperidide; lactam N-11)	9.3	> 500
CC[C@H](C)[C@@H]1NC(=O)[C@H](CC(C)C)N(C)C(=O)C[C@@H](C)N(C)C(=O)[C@H](CC(C)C)NC(=O)C(C)(C)N(C)C(=O)[C@H](CC(C)C)NC(=O)[C@H](CCc2ccc(C(F)(F)F)c(F)c2)NC(=O)CN(C)C(=O)[C@H](Cc2ccc(Cl)cc2)N(C)C(=O)CN(C)C(=O)CN(C)C1=O [Compound 797] (cyclo(I[Sar][Sar][NMePhe(4-Cl)][Sar][hPhe(3-F,4-CF3)]L[NMeAib]L[NMedβ3hAla][NMeL]))	19	> 500
CC[C@H](C)[C@@H]1NC(=O)[C@H](CC(C)C)N(C)C(=O)C[C@@H](C(=O)N2CCCC2)N(C)C(=O)[C@H]([C@@H](C)CC)N(C)C(=O)C2(CCCC2)NC(=O)[C@@H]2CCCN2C(=O)[C@H](CCc2ccc(C(F)(F)F)c(Cl)c2)NC(=O)CN(C)C(=O)[C@H](C2CCCC2)N(C)C(=O)[C@@H]2CCN2C(=O)[C@H](C)N(C)C1=O [Compound 799] ([NMeL]I[NMeA][Aze][NMeGly(cPent)][Sar][hPhe(3-Cl-4-CF3)]P[Ac5c][NMeI][NMeD]-Pyrrolidide; lactam N-11)	1.4	≤ 20
